Test results published in patent publication US20240158446A1, “CYCLIC COMPOUND HAVING SELECTIVE INHIBITORY ACTION ON KRAS OVER HRAS AND NRAS” (CHUGAI SEIYAKU KABUSHIKI KAISHA, priority 2021, published 2024).

Columns and labels:
[1] = target: GDP-bound KRAS wild-type protein (Homo sapiens, UniProt P01116); test: Binding to KRAS by surface plasmon resonance (SPR), Single Cycle Kinetics; details: SPR, Single Cycle Kinetics, 1:1 binding model; GDP-bound KRAS wild-type protein; read-out: KRAS KD
[2] = target: GDP-bound NRAS wild-type protein (Homo sapiens, UniProt P01111); test: Binding to NRAS by surface plasmon resonance (SPR), Single Cycle Kinetics; details: SPR; GDP-bound NRAS wild-type protein vs GDP-bound KRAS wild-type protein; KD ratio class
[3] = target: GDP-bound HRAS wild-type protein (Homo sapiens, UniProt P01112); test: Binding to HRAS by surface plasmon resonance (SPR), Single Cycle Kinetics; details: SPR; GDP-bound HRAS wild-type protein vs GDP-bound KRAS wild-type protein; KD ratio class
[4] = tested on: human lung cancer strain NCI-H441;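 further: cell proliferation inhibition after four days measured by CellTiter-Glo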

Sequence of GDP-bound HRAS wild-type protein (P01112 whole entry): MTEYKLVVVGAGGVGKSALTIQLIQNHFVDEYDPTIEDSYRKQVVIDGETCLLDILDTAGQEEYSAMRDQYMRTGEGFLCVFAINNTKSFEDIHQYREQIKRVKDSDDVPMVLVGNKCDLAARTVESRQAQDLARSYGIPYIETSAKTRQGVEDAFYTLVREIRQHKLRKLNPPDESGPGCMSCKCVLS
Sequence of GDP-bound KRAS wild-type protein (P01116 whole entry): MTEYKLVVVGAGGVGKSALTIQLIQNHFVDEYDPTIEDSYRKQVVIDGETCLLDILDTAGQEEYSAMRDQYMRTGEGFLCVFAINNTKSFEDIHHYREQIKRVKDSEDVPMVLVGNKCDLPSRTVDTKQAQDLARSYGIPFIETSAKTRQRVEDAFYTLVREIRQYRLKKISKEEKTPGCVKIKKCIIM
Sequence of GDP-bound NRAS wild-type protein (P01111 whole entry): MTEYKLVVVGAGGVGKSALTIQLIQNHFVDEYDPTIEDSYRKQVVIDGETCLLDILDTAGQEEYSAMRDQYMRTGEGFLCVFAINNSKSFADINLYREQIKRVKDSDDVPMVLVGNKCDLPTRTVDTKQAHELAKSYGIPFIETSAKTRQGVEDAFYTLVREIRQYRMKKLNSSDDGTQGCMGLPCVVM

Structure (SMILES) | Kd [1] [nM] | NRAS/KRAS (ratio of KD value for NRAS to KD value for KRAS) [2] | HRAS/KRAS (ratio of KD value for HRAS to KD value for KRAS) [3] | IC50 [4] [nM]
CCO[C@@H]1C[C@H]2C(=O)NC3(CCC3)C(=O)N(C)[C@@H](C3CCCC3)C(=O)N(C)[C@@H](C(=O)N(C)C)CC(=O)N(C)[C@@H](CC)C(=O)N[C@@H]([C@@H](C)CC)C(=O)N(C)CC(=O)N(C)[C@H]3C/C=C\CCN(C3=O)[C@@H](Cc3ccc(C(F)(F)F)cc3)C(=O)N(C)CC(=O)N[C@@H](CCc3cc(F)c(C(F)(F)F)c(F)c3)C(=O)N2C1 [PP1234] | 3.8 | B (a compound having 3 or more and less than 10 is denoted as B) | C (A compound having a KD ratio of 0.1 or more and less than 3 is denoted as C) | 398
CCCCCC[C@H]1C(=O)N[C@@H]([C@@H](C)CC)C(=O)N(C)CC(=O)N(C)[C@H]2C/C=C\CCN(C2=O)[C@@H](Cc2ccc(C(F)(F)F)cc2)C(=O)N(C)CC(=O)N[C@@H](CCc2cc(F)c(C(F)(F)F)c(F)c2)C(=O)N2C[C@H](OCC)C[C@H]2C(=O)NC2(CCC2)C(=O)N(C)[C@@H](C2CCCC2)C(=O)N(C)[C@H](C(=O)N(C)C)CC(=O)N1C [PP1242, (2S,8S,12R,14S,20S,23S,27S,30S,36S,38Z)-20-cyclopentyl-8-[2-[3,5-difluoro-4-(trifluoromethyl)phenyl]ethyl]-12-ethoxy-27-hexyl-N,N,4,19,22,26,32,35-octamethyl-30-[(1S)-1-methylpropyl]-3,6,9,15,18,21,25,28,31,34,42-undecaoxo-2-[[4-(trifluoromethyl)phenyl]methyl]spiro[1,4,7,10,16,19,22,26,29,32,35-undecazatricyclo[34.5.1.0^10,14]dotetracont-38-ene-17,1′-cyclobutane]-23-carboxamide] | 0.076 | A (a compound having 10 or more and less than 20 is denoted as A) | A (a compound having 10 or more and less than 20 is denoted as A) | 12.8
CCO[C@@H]1C[C@H]2C(=O)NC3(CCC3)C(=O)N(C)[C@@H](C3CCCC3)C(=O)N(C)[C@H](C(=O)N(C)C)CC(=O)N(C)[C@@H](CC)C(=O)N[C@@H]([C@@H](C)CC)C(=O)N(C)CC(=O)N(C)[C@H]3C/C=C\CCN(C3=O)[C@@H](Cc3ccc(C(F)(F)F)cc3)C(=O)N(C)CC(=O)N[C@@H](CCc3ccc(C(F)(F)F)c(OC)c3)C(=O)N2C1 [PP1243, (2S,8S,12R,14S,20S,23S,27S,30S,36S,38Z)-20-cyclopentyl-12-ethoxy-27-ethyl-8-[2-[3-methoxy-4-(trifluoromethyl)phenyl]ethyl]-N,N,4,19,22,26,32,35-octamethyl-30-[(1S)-1-methylpropyl]-3,6,9,15,18,21,25,28,31,34,42-undecaoxo-2-[[4-(trifluoromethyl)phenyl]methyl]spiro[1,4,7,10,16,19,22,26,29,32,35-undecazatricyclo[34.5.1.0^10,14]dotetracont-38-ene-17,1′-cyclobutane]-23-carboxamide] | 0.058 | A (a compound having 10 or more and less than 20 is denoted as A) | A (a compound having 10 or more and less than 20 is denoted as A) | 13.2
CCC[C@H]1C(=O)N[C@@H]([C@@H](C)CC)C(=O)N(C)CC(=O)N(C)[C@H]2C/C=C\CCN(C2=O)[C@@H](Cc2ccc(C(F)(F)F)cc2)C(=O)N(C)CC(=O)N[C@@H](CCc2ccc(C(F)(F)F)c(OC)c2)C(=O)N2C[C@H](OCC)C[C@H]2C(=O)NC2(CCC2)C(=O)N(C)[C@@H](C2CCCC2)C(=O)N(C)[C@H](C(=O)N(C)C)CC(=O)N1C [PP1244, (2S,8S,12R,14S,20S,23S,27S,30S,36S,38Z)-20-cyclopentyl-12-ethoxy-8-[2-[3-methoxy-4-(trifluoromethyl)phenyl]ethyl]-N,N,4,19,22,26,32,35-octamethyl-30-[(1S)-1-methylpropyl]-3,6,9,15,18,21,25,28,31,34,42-undecaoxo-27-propyl-2-[[4-(trifluoromethyl)phenyl]methyl]spiro[1,4,7,10,16,19,22,26,29,32,35-undecazatricyclo[34.5.1.0^10,14]dotetracont-38-ene-17,1′-cyclobutane]-23-carboxamide] | 0.061 | A (a compound having 10 or more and less than 20 is denoted as A) | B (a compound having 3 or more and less than 10 is denoted as B) | 8.9
CCO[C@@H]1C[C@H]2C(=O)NC3(CCC3)C(=O)N(C)[C@@H](C3CCCC3)C(=O)N(C)[C@H](C(=O)N(C)C)CC(=O)N(C)[C@@H](CC(C)C)C(=O)N[C@@H]([C@@H](C)CC)C(=O)N(C)CC(=O)N(C)[C@H]3C/C=C\CCN(C3=O)[C@@H](Cc3ccc(C(F)(F)F)cc3)C(=O)N(C)CC(=O)N[C@@H](CCc3ccc(C(F)(F)F)c(OC)c3)C(=O)N2C1 [PP1245, (2S,8S,12R,14S,20S,23S,27S,30S,36S,38Z)-20-cyclopentyl-12-ethoxy-27-isobutyl-8-[2-[3-methoxy-4-(trifluoromethyl)phenyl]ethyl]-N,N,4,19,22,26,32,35-octamethyl-30-[(1S)-1-methylpropyl]-3,6,9,15,18,21,25,28,31,34,42-undecaoxo-2-[[4-(trifluoromethyl)phenyl]methyl]spiro[1,4,7,10,16,19,22,26,29,32,35-undecazatricyclo[34.5.1.0^10,14]dotetracont-38-ene-17,1′-cyclobutane]-23-carboxamide] | 0.06 | A (a compound having 10 or more and less than 20 is denoted as A) | B (a compound having 3 or more and less than 10 is denoted as B) | 3.7
CCCCCC[C@H]1C(=O)N[C@@H]([C@@H](C)CC)C(=O)N(C)CC(=O)N(C)[C@H]2C/C=C\CCN(C2=O)[C@@H](Cc2ccc(C(F)(F)F)cc2)C(=O)N(C)CC(=O)N[C@@H](CCc2ccc(C(F)(F)F)c(OC)c2)C(=O)N2C[C@H](OCC)C[C@H]2C(=O)NC2(CCC2)C(=O)N(C)[C@@H](C2CCCC2)C(=O)N(C)[C@H](C(=O)N(C)C)CC(=O)N1C [PP1246, (2S,8S,12R,14S,20S,23S,27S,30S,36S,38Z)-20-cyclopentyl-12-ethoxy-27-hexyl-8-[2-[3-methoxy-4-(trifluoromethyl)phenyl]ethyl]-N,N,4,19,22,26,32,35-octamethyl-30-[(1S)-1-methylpropyl]-3,6,9,15,18,21,25,28,31,34,42-undecaoxo-2-[[4-(trifluoromethyl)phenyl]methyl]spiro[1,4,7,10,16,19,22,26,29,32,35-undecazatricyclo[34.5.1.0^10,14]dotetracont-38-ene-17,1′-cyclobutane]-23-carboxamide] | 0.081 | A (a compound having 10 or more and less than 20 is denoted as A) | A (a compound having 10 or more and less than 20 is denoted as A) | 9
